The nature of one data set: Humidity Chamber Study A. The format is physicochemical. The note with it: 40° C., 75% relative humidity, 5 days. Here is the method:
Temperature: 40° C.; Relative humidity: 75%; Time: 5 days.
The compound of Example 9 was placed in a humidity chamber set at 40° C. and 75% relative humidity for 5 days.

Data set [1] is described as follows: Dynamic Vapor Sorption (DVS) study. The data set is classed as physicochemical. On the procedure:
Some of the compounds prepared were analyzed using Dynamic Vapor Sorption (DVS). Typical DVS conditions are as follows: SGA-100 Symmetric Vapor Sorption Analyzer from VTI Corporation. The moisture uptake profile was completed in four cycles in 10% relative humidity (RH) increments with the first adsorption from 25% to 95% RH, followed by desorption in 10% increments from 95% to 5% RH. The equilibration criteria were 0.0050 wt % in 5 minutes with a maximum equilibration time of 180 minutes; Data logging interval: 2.00 min or 0.0100 wt %. All adsorption and desorption were performed at room temperature (25° C.). No pre-drying step was applied.
A Dynamic Vapor Sorption (DVS) study was conducted on the compound of Example 9 to monitor the hydroscopicity, hydrate formation and dehydration, as well as solid form transformation. The moisture uptake profile was completed in four cycles in 10% relative humidity (RH) increments with the first adsorption from 25% to 95% RH, followed by desorption in 10% increments from 95% to 5% RH. The equilibration criteria were as follows: 0.0050 wt % in 5 minutes with a maximum equilibration time of 180 minutes. All adsorption and desorption were performed at room temperature (25° C.). No pre-drying step was applied for the sample.

A further data set can be described thus: Humidity Chamber Study B. The format is physicochemical. The following applies: 30° C., 90% relative humidity, 7 days. Here is the method:
Temperature: 30° C.; Relative humidity: 90%; Time: 7 days.
The compound of Example 9 was placed in a humidity chamber set at 30° C. and 90% relative humidity (RH) for 7 days. […] The XRPD patterns of the 30° C./90% RH sample corresponded to the hydrate form obtained from an aqueous suspension of the anhydrous crystalline free base drug substance.

For data set [2], the target named is T1, human JAK2 (a.a. 828-1132) (Homo sapiens, UniProt O60674).
T1 construct: JAK2 (a.a. 828-1132); made in house; host or cells: insect cells (baculovirus)
Put plainly: In vitro JAK kinase assay (HTRF), JAK2. The data set is classed as biochemical. The following applies: 1 mM ATP. Here is the method:
(§1) Compounds herein were tested for inhibitory activity of JAK targets according to the following in vitro assay described in Park et al., Analytical Biochemistry 1999, 269, 94-104. The catalytic domains of human JAK1 (a.a. 837-1142), JAK2 (a.a. 828-1132) and JAK3 (a.a. 781-1124) were expressed using baculovirus in insect cells and purified. The catalytic activity of JAK1, JAK2 or JAK3 was assayed by measuring the phosphorylation of a biotinylated peptide. The phosphorylated peptide was detected by homogenous time resolved fluorescence (HTRF). IC50s of compounds were measured for each kinase in the 40 μL, reactions that contain the enzyme, ATP and 500 nM peptide in 50 mM Tris (pH 7.8) buffer with 100 mM NaCl, 5 mM DTT, and 0.1 mg/mL (0.01%) BSA. For the 1 mM IC50 measurements, ATP concentration in the reactions was 1 mM. Reactions were carried out at room temperature for 1 hour and then stopped with 20 μL 45 mM EDTA, 300 nM SA-APC, 6 nM Eu-Py20 in assay buffer (Perkin Elmer, Boston, Mass.). Binding to the Europium labeled antibody took place for 40 minutes and HTRF signal was measured on a PHERAi star plate reader (BMG, Cary, N.C.).
Background: Time-resolved FRET reads energy transfer from a long-lived donor to a nearby acceptor.

Data set [3] has as its target T2, human JAK1 (a.a. 837-1142) (Homo sapiens, UniProt P23458).
T2 construct: The catalytic domains of human JAK1 (a.a. 837-1142); made in house; host or cells: insect cells (baculovirus)
Briefly: In vitro JAK kinase assay (HTRF), JAK1. The data set is classed as biochemical. The following applies: 1 mM ATP. Here is the method: as §1

In data set [4] the test system is human JAK1 (a.a. 837-1142). Briefly: In vitro JAK kinase assay (HTRF), JAK1. The format is biochemical. On the procedure: as §1

Each structure is given as a SMILES string.

The term IC50 denotes the concentration needed to halve the response being measured. A higher IC50 goes with weaker potency.

T1 sequence (O60674 828-1132): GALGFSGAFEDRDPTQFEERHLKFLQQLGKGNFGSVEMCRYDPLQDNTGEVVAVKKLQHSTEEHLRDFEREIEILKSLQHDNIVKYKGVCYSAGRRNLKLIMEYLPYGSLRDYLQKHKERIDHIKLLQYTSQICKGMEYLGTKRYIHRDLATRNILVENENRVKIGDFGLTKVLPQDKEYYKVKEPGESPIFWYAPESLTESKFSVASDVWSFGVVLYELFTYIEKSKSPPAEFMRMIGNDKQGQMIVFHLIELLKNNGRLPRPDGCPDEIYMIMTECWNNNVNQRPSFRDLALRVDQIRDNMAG
T2 sequence (P23458 849-1154): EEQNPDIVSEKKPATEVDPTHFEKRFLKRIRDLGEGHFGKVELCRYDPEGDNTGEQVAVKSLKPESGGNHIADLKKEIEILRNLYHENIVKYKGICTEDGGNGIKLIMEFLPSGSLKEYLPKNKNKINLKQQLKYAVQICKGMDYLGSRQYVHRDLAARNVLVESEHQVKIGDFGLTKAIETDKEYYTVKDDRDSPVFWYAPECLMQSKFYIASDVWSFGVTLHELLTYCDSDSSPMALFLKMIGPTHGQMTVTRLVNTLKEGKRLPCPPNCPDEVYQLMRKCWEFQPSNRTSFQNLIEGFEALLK

Regarding `C[C@@H](O)c1nc2cnc3ccsc3c2n1[C@H]1CC[C@H](CC#N)OC1` [Example 9, 2-((2R,5S)-5-(2-((R)-1-hydroxyethyl)-1H-imidazo[4,5-d]thieno[3,2-b]pyridin-1-yl)tetrahydro-2H-pyran-2-yl)acetonitrile], in the data set “Humidity Chamber Study A”, the “Solid form by XRPD after humidity chamber” value is “converted to the crystalline hydrate form”, the “Water content by KF after humidity chamber” value was found to be 4.6% and the “Weight loss observed by TGA after humidity chamber” value is 5.01%. Further, the “Water absorption of the anhydrous form” value in data set [1] (DVS, 25° C., four cycles, 5% to 95% RH) is “slow below 85% RH and fast above 85% RH”. Further, the “Solid form after DVS cycle 4” value in data set [1] (DVS, 25° C., XRPD before and after) is “fully converted to the hydrate form”. In data set [1] (ambient storage), the “Behaviour under ambient storage conditions” value is “slowly absorb water and convert to hydrate form”. In “Humidity Chamber Study B”, the “Solid form by XRPD after humidity chamber” value is listed as “converted to the crystalline hydrate form”, the “Water content by KF after humidity chamber” value worked out at 4.72% and the “Weight loss observed by TGA after humidity chamber” value came out at 5.05%.
Regarding `C[C@@H](O)c1nc2cnc3ccsc3c2n1[C@H]1CC[C@H](CC#N)OC1` [Example 10, 2-((2R,5S)-5-(2-((R)-1-hydroxyethyl)-1H-imidazo[4,5-d]thieno[3,2-b]pyridin-1-yl)tetrahydro-2H-pyran-2-yl)acetonitrile monohydrate], the “Dehydration process from the hydrate to the anhydrous form” value in data set [1] (DVS desorption, 25° C.) was “very slow, even at 5% RH”. For the same compound, in data set [1] (DVS, 25° C.), the “Physical stability to humidity” value is “physically stable in a wide range of humidity conditions”.
`C[C@@H](O)c1nc2cnc3ccsc3c2n1[C@H]1CC[C@H](CC#N)OC1` [Formula Ia, 2-((2R,5S)-5-(2-((R)-1-hydroxyethyl)-1H-imidazo[4,5-d]thieno[3,2-b]pyridin-1-yl)tetrahydro-2H-pyran-2-yl)acetonitrile]: the values for the IC50 in data set [2] and in data set [3] were ≤ 1000 nM and ≤ 100 nM, respectively. In data set [4] (1 mM ATP, ratio of IC50s), the JAK2/JAK1 ratio was > 10. Also, the “JAK2/JAK1 IC50 ratio” value in data set [4] (general statement of selectivity for JAK1 over JAK2) is > 10.
